# In patent US20230339970A1, “CASEIN KINASE 1 DELTA MODULATORS” (priority 2020, published 2023):
# What was measured:
# [1] = target: T1, human CSNK1D (Homo sapiens, UniProt P48730); assay: Whole Cell nBRET CSNK1D Binding Assay; conditions: living CHO cells stably expressing human CSNK1D tagged with nanoluciferase; NanoBret tracer 130 nM; 2 hours at 37 C
# T1 construct: expressed in transfected cells
# [2] = target: T2, human recombinant GST cleaved CSNK1D (Homo sapiens, UniProt P48730); assay: Purified Enzyme Assay (ADP-Glo CSNK1D Kinase Assay); format: biochemical; conditions: 2 nM CSNK1D; peptide substrate 150 μM; ATP 20 μM; 45 minutes at room temperature
# T2 construct: GST (cleaved yes); purchased University of Dundee clone DU 19064
# T2 sequence (P48730 whole entry): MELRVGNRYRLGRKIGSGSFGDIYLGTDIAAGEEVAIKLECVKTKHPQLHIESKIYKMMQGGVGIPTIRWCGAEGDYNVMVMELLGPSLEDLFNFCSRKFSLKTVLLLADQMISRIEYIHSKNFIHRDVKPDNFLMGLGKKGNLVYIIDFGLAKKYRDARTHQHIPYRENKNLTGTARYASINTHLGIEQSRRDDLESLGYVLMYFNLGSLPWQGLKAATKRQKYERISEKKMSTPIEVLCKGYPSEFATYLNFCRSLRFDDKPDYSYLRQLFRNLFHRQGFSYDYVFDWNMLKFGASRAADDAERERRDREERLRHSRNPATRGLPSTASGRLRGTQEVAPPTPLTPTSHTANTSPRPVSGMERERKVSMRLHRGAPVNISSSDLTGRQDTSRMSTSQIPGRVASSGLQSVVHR
# How it was run: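 GST-cleaved human recombinant CSNK1D phosphorylates peptide PLSRTL-pS-VASLPGL with ATP; compounds added in dose-response, 45 min at room temperature. ADP formed measured by ADP-Glo luminescence and converted to percent activity.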
# T1 sequence (P48730 whole entry): as above
SMILES,IC50 [1],IC50 [2]
"Fc1ccc(-c2nn3c(c2-c2ccnc4[nH]ccc24)CCCC3)nc1 [Example 3, 4-[2-(5-Fluoro-2-pyridyl)-4,5,6,7-tetrahydropyrazolo[1,5-a]pyridin-3-yl]-1H-pyrrolo[2,3-b]pyridine]",41 nM,8 nM
"Cc1cc(-c2c(-c3ccc(F)cn3)nn3c2CO[C@@H](C)C3)c2cn[nH]c2n1 (single isomer, unassigned) [Example 88, (*S)-2-(5-Fluoro-2-pyridyl)-6-methyl-3-(6-methyl-1H-pyrazolo[3,4-b]pyridin-4-yl)-6,7-dihydro-4H-pyrazolo[5,1-c][1,4]oxazine]",248 nM,12 nM
"Cc1cc(-c2c(-c3ccc(F)cn3)nn3c2CCCC3)c2cn[nH]c2n1 [Example 36, 4-[2-(5-Fluoro-2-pyridyl)-4,5,6,7-tetrahydropyrazolo[1,5-a]pyridin-3-yl]-6-methyl-1H-pyrazolo[3,4-b]pyridine]",133 nM,6 nM
"CC1(C)Cn2nc(-c3ccncc3Cl)c(-c3ccnc4[nH]ncc34)c2CO1 [Example 162, 2-(3-Chloropyridin-4-yl)-6,6-dimethyl-3-(1H-pyrazolo[3,4-b]pyridin-4-yl)-6,7-dihydro-4H-pyrazolo[5,1-c][1,4]oxazine]",> 10000 nM,143 nM
"Fc1ccc(-c2nn3c(c2-c2c(F)cnc4[nH]ncc24)CC2(C3)CC2(F)F)nc1 (single isomer, unassigned) [Example 258, (*S)-2,2-Difluoro-3′-(5-fluoro-1H-pyrazolo[3,4-b]pyridin-4-yl)-2′-(5-fluoropyridin-2-yl)-4′H,6′H-spiro[cyclopropane-1,5′-pyrrolo[1,2-b]pyrazole]]",71 nM,6 nM
"CC1(CF)CCc2c(-c3ccncc3)c(-c3ccc(F)cn3)nn2C1 (single isomer, unassigned) [Example 284, (*S)-6-(Fluoromethyl)-2-(5-fluoro-2-pyridyl)-6-methyl-3-(4-pyridyl)-5,7-dihydro-4H-pyrazolo[1,5-a]pyridine]",68 nM,6 nM
"CC1(C)Cn2nc(-c3ncc(F)cc3F)c(-c3ccnc4[nH]ncc34)c2CO1 [Example 166, 2-(3,5-Difluoropyridin-2-yl)-6,6-dimethyl-3-(1H-pyrazolo[3,4-b]pyridin-4-yl)-6,7-dihydro-4H-pyrazolo[5,1-c][1,4]oxazine]",102 nM,7 nM
"Fc1ccc(-c2nn3c(c2-c2ccnc4[nH]ncc24)COC(C(F)(F)F)C3)nc1 (centres unmarked) [Example 102, 2-(5-Fluoropyridin-2-yl)-3-(1H-pyrazolo[3,4-b]pyridin-4-yl)-6-(trifluoromethyl)-6,7-dihydro-4H-pyrazolo[5,1-c][1,4]oxazine]",844 nM,39 nM
"CC1(C)Cn2nc(-c3cnco3)c(-c3ccnc4[nH]ncc34)c2CO1 [Example 126, 6,6-Dimethyl-2-(oxazol-5-yl)-3-(1H-pyrazolo[3,4-b]pyridin-4-yl)-6,7-dihydro-4H-pyrazolo[5,1-c][1,4]oxazine]",827 nM,21 nM
"Fc1ccc(-c2nn3c(c2-c2ccnc4[nH]ncc24)COCC3)nc1 [Example 78, 2-(5-Fluoro-2-pyridyl)-3-(1H-pyrazolo[3,4-b]pyridin-4-yl)-6,7-dihydro-4H-pyrazolo[5,1-c][1,4]oxazine]",337 nM,15 nM
"Fc1cnc(-c2nn3c(c2-c2ccnc4[nH]ncc24)OCCC3)c(F)c1 [Example 188, 2-(3,5-Difluoro-2-pyridyl)-3-(1H-pyrazolo[3,4-b]pyridin-4-yl)-6,7-dihydro-5H-pyrazolo[5,1-b][1,3]oxazine]",139 nM,12 nM
"CC(=O)Nc1cc(-c2c(-c3ccc(F)cn3)nn3c2OCCC3)ccn1 [Example 183, N-(4-(2-(5-Fluoropyridin-2-yl)-6,7-dihydro-5H-pyrazolo[5,1-b][1,3]oxazin-3-yl)pyridin-2-yl)acetamide]",220 nM,7 nM
"Clc1ccc(-c2nn3c(c2-c2ccnc4[nH]ncc24)COCC3)cc1 [Example 67, 2-(4-Chlorophenyl)-3-(1H-pyrazolo[3,4-b]pyridin-4-yl)-6,7-dihydro-4H-pyrazolo[5,1-c][1,4]oxazine]",243 nM,20 nM
Cc1cc(-c2c(-c3ccc(F)cc3)nn3c2C[C@H]2C[C@H]23)c2cn[nH]c2n1 [Example 269],73 nM,6 nM

# Further lines, results first:
IC50 [1],IC50 [2],SMILES
55 nM,7 nM,"Cc1cc(-c2c(-c3ccc(F)cn3)nn3c2OC(C)(C)C3)c2cn[nH]c2n1 [Example 368, 6-(5-Fluoro-2-pyridyl)-2,2-dimethyl-7-(6-methyl-1H-pyrazolo[3,4-b]pyridin-4-yl)-3H-pyrazolo[5,1-b]oxazole]"
54 nM,6 nM,"Fc1ccc(-c2nn3c(c2-c2ccnc4[nH]ncc24)CCC(F)(COC(F)(F)F)C3)nc1 (single isomer, unassigned) [Example 316, (*S)-4-[6-Fluoro-2-(5-fluoro-2-pyridyl)-6-(rifluoromethoxymethyl)-5,7-dihydro-4H-pyrazolo[1,5-a]pyridin-3-yl]-1H-pyrazolo[3,4-b]pyridine]"
5760 nM,132 nM,"Cc1cn2nccc2cc1-c1c(-c2ccc(F)cn2)nn2c1OCC(C)(C)C2 [Example 451, 2-(5-Fluoro-2-pyridyl)-6,6-dimethyl-3-(6-methylpyrazolo[1,5-a]pyridin-5-yl)-5,7-dihydropyrazolo[5,1-b][1,3]oxazine]"
> 10000 nM,4960 nM,"Cc1nc2[nH]nc(C)c2c(-c2c(-c3ccc(F)cn3)nn3c2CC[C@@]2(C3)CC2(F)F)c1F (single isomer, unassigned) [Example 333, (*S)-2,2-Difluoro-3′-(5-fluoro-3,6-dimethyl-1H-pyrazolo[3,4-b]pyridin-4-yl)-2′-(5-fluoropyridin-2-yl)-4′,5′-dihydro-7′H-spiro[cyclopropane-1,6′-pyrazolo[1,5-a]pyridine]]"
7 nM,1 nM,"O=C(Nc1cc(-c2c(-c3ccc(F)cn3)nn3c2OCC2(CC2)C3)ccn1)C1CC1 [Example 456, N-(4-(2′-(5-Fluoropyridin-2-yl)-5′H,7′H-spiro[cyclopropane-1,6′-pyrazolo[5,1-b][1,3]oxazin]-3′-yl)pyridin-2-yl)cyclopropanecarboxamide]"
2850 nM,89 nM,"COCC1(F)CCc2c(-c3cc(C)nc4[nH]ncc34)c(-c3ccc(F)cn3)nn2C1 (single isomer, unassigned) [Example 305, (*R)-4-[6-Fluoro-2-(5-fluoro-2-pyridyl)-6-(methoxymethyl)-5,7-dihydro-4H-pyrazolo[1,5-a]pyridin-3-yl]-6-methyl-1H-pyrazolo[3,4-b]pyridine]"
7800 nM,404 nM,"CCn1ncc2cc(-c3c(-c4ccc(F)cn4)nn4c3CO[C@@H](C)C4)cnc21 [Example 371, (S)-3-(1-Ethyl-1H-pyrazolo[3,4-b]pyridin-5-yl)-2-(5-fluoropyridin-2-yl)-6-methyl-6,7-dihydro-4H-pyrazolo[5,1-c][1,4]oxazine]"
173 nM,25 nM,"Cc1nc2[nH]nc(C)c2c(-c2c(-c3ccc(F)cn3)nn3c2CC[C@@H]2C[C@@H]23)c1F (single isomer, unassigned) [Example 346, (5a*R,6a*S)-3-(5-Fluoro-3,6-dimethyl-1H-pyrazolo[3,4-b]pyridin-4-yl)-2-(5-fluoropyridin-2-yl)-5,5a,6,6a-tetrahydro-4H-cyclopropa[e]pyrazolo[1,5-a]pyridine]"
